{"source": "patent US6918445B2", "about": "“Methods and compositions for treating subterranean zones using environmentally safe polymer breakers” (Halliburton Energy Services, Inc., priority 2003, dated 2005)", "assay": "Sodium perborate tetrahydrate solubility tests in fresh water", "type": "physicochemical", "settings": "density 8.33 pounds per gallon, 75° F., with mixing; for Amount Dissolved (solubility of sodium perborate tetrahydrate in water): 10% by weight of water was a pass/fail target, not the maximum solubility", "protocol": "Sodium perborate tetrahydrate solubility tests in fresh water having a density of 8.33 pounds per gallon were conducted. […] The sodium borate tetrahydrate-complex or ester forming compound mixtures all contained a molar ratio of sodium perborate tetrahydrate to the complex or ester forming compound of 1:2, and the mixtures were added to the water in amounts whereby the sodium perborate tetrahydrate was present in an amount of 10% by weight of the water."}
{"smiles": "O.O.O.O.[Na+].[O-]B1OO1", "note": "[Sodium Perborate Tetrahydrate]", "values": [{"measurement": "Amount Dissolved (solubility of sodium perborate tetrahydrate in water)", "result": "2.5% by weight of water"}, {"measurement": "Amount Dissolved (solubility of sodium perborate tetrahydrate in water)", "setting": "listed as sodium perborate tetrahydrate", "result": "2.5 % by weight of water"}, {"measurement": "Time Required", "setting": "time to dissolve the stated amount", "result": "<15", "unit": "min"}]}
